Each structure is given as a SMILES string. Read-outs that look alike come from different tables or passages of the source.

In test [1] the target is T1, recombinant human LTA4 hydrolase (rhLTA4H) (Homo sapiens, UniProt P09960).
T1 construct: made in house; host or cells: Spodoptera frugiperda (Sf-9) cells, recombinant baculovirus (pFastBac1)
T1 sequence (P09960 1-611): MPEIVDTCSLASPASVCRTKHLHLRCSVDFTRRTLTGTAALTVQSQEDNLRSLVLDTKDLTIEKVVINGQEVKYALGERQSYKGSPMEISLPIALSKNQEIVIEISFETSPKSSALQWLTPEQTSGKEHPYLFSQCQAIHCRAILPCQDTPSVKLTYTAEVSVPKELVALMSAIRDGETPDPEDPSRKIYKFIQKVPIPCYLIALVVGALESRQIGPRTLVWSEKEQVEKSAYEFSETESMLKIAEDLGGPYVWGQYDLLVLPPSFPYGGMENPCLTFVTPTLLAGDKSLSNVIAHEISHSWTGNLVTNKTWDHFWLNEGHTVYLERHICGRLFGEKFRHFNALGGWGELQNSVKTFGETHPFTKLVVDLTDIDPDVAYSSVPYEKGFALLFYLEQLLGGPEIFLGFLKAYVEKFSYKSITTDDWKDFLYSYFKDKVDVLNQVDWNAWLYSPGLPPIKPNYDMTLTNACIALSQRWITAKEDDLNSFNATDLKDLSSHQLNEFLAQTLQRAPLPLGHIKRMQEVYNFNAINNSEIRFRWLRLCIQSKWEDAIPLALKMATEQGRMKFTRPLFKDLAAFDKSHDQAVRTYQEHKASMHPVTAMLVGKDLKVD
As to the kind of experiment: Recombinant human LTA4 hydrolase assay for LTA4 hydrolase inhibitor activity. It counts as biochemical. The method, boiled down: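 Recombinant human LTA4H from baculovirus-infected Sf-9 cells (10 ng) pre-incubated 10 min at rt with compound (10% DMSO in dilutions), then reacted with free-acid LTA4 for 30 min at rt. LTB4 measured by ELISA; IC50 by nonlinear regression. Values are single determinations or averages.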

For test [2], the system named is LTB4 production by calcium ionophore-stimulated murine blood. As to the kind of experiment: LTB4 production by calcium ionophore-stimulated murine blood for LTA4H inhibitor activity. Format: cell-based, CD-1 mice. Conditions: Mus musculus. The method, boiled down:
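Heparinized CD-1 mouse blood pre-incubated with compound 15 min at 37° C, then stimulated with calcium ionophore A23187 (7 μg/mL final) for 30 min. LTB4 in supernatant measured by enzyme immunoassay; values are single or averaged determinations, with SD for n≥3.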

The subject of test [3] is ex vivo stimulated LTB4 production. As to the kind of experiment: Murine arachidonic acid-induced inflammation model: ex vivo stimulated LTB4 production (% Inh. LTB4). Conditions: Mus musculus; female Balb/c mice, 30 mg/kg oral gavage; blood taken 3 h after arachidonic acid, ex vivo A23187 stimulation; number of determinations in parentheses. Put shortly: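 Female Balb/c mice got 30 mg/kg orally in 20% cyclodextran/H2O. Heparinized blood in RPMI-1640 was stimulated with A23187 ([…]) for 30 min at 37 °C. LTB4 was measured by ELISA as % inhibition versus vehicle-dosed mice.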

The mark [4] stands for this setting: rhLTA4H, LTA4 substrate, LTB4 by immunoassay, single determination or average, read-out: IC50.
Where [5] appears, read: murine blood diluted 1 in 15, calcium ionophore A23187, LTB4 by immunoassay, read-out: IC50.

By IC50 is commonly meant the midpoint of a concentration-inhibition curve. In general, inhibition refers to the share of the control response that was lost under treatment. Turning to `NC(=O)N1C[C@@H]2C[C@H]1CN2Cc1ccc(Oc2nc3ncccc3s2)cc1` [Example 106, (1S,4S)-5-[4-([1,3]Thiazolo[4,5-b]pyridin-2-yloxy)benzyl]-2,5-diazabicyclo[2.2.1]heptane-2-carboxamide], the IC50 in test [1] (setting [4]) was found to be 3.5 nM; in test [2] (setting [5]), 79 nM. In addition, in test [3], the inhibition at 30 mg/kg was found to be 90.5%.
In the case of `CC(=O)N[C@H]1C[C@H]2CC[C@@H](C1)N2Cc1ccc(Oc2nc3ncccc3s2)cc1` [Example 116, meso-N-{(3-endo)-8-[4-([1,3]Thiazolo[4,5-b]pyridin-2-yloxy)benzyl]-8-azabicyclo[3.2.1]oct-3-yl}acetamide], the IC50 is 1 ± 0.51 nM in test [1] and 22 ± 17 nM in test [2]. The inhibition at 30 mg/kg in test [3] was found to be 81%.
For `CC(=O)N1C[C@@H]2C[C@H]1CN2CCOc1ccc(Oc2nc3ncccc3s2)cc1` [Example 14, 2-(4-{2-[(1S,4S)-5-Acetyl-2,5-diazabicyclo[2.2.1]hept-2-yl]ethoxy}phenoxy)[1,3]thiazolo[4,5-b]pyridine], the results for the IC50 in test [1] (setting [4]) and in test [2] (setting [5]) were 7.5 ± 4.6 nM and 18 ± 13 nM, respectively. Also, the inhibition at 30 mg/kg in test [3] is 84%.
Consider `NC(=O)C1CCN(CCOc2ccc(Oc3nc4ncccc4s3)cc2)CC1` [Example 31, 1-{2-[4-([1,3]Thiazolo[4,5-b]pyridin-2-yloxy)phenoxy]ethyl}piperidine-4-carboxamide], for which the concentration for half-maximal inhibition (IC50) in test [1] (setting [4]) was 29 nM; in test [2] (setting [5]), 31 nM. For the same molecule, in test [3], the inhibition at 30 mg/kg was determined as 79.8%.
In the same order, the values of `CC(=O)N1C[C@H]2C[C@@H]1CN2CCOc1ccc(Oc2nc3ncccc3s2)cc1` [Example 267, 2-(4-{2-[(1R,4R)-5-Acetyl-2,5-diazabicyclo[2.2.1]hept-2-yl]ethoxy}phenoxy)[1,3]thiazolo[4,5-b]pyridine] are 3 nM, 110 nM and 83.4%.
As for `CC(=O)N1CC2CN(CCc3ccc(Oc4nc5ncccc5s4)cc3)CC2C1` (stereo not drawn) [Example 73, 2-{4-[2-(5-Acetylhexahydropyrrolo[3,4-c]pyrrol-2(1H)-yl)ethyl]phenoxy}[1,3]thiazolo[4,5-b]pyridine], the IC50 in test [1] (setting [4]) was 12 nM; in test [2] (setting [5]), 50 nM. Besides, the inhibition at 30 mg/kg in test [3] worked out at 85.7%.
For `O=C1CCCN1C1CCN(Cc2ccc(Oc3nc4ncccc4s3)cc2)CC1` [Example 83, 1-{1-[4-([1,3]Thiazolo[4,5-b]pyridin-2-yloxy)benzyl]piperidin-4-yl}pyrrolidin-2-one], the IC50 in test [1] (setting [4]) is 6.3 nM; in test [2] (setting [5]) it was 55 nM. Besides, the inhibition at 30 mg/kg in test [3] amounted to 81%.
In the same order, the values of `CC(=O)N1C[C@@H]2C[C@H]1CN2Cc1ccc(Oc2nc3ncc(C)cc3s2)cc1` [Example 121, 2-(4-{[(1S,4S)-5-Acetyl-2,5-diazabicyclo[2.2.1]hept-2-yl]methyl}phenoxy)-6-methyl[1,3]thiazolo[4,5-b]pyridine] are 38 ± 17 nM, 120 ± 42 nM and 83%.
Take `CC(=O)N[C@@H]1C[C@H]2CC[C@@H](C1)N2Cc1ccc(Oc2nc3ncccc3s2)cc1` [Example 109, meso-N-{(3-exo)-8-[4-([1,3]Thiazolo[4,5-b]pyridin-2-yloxy)benzyl]-8-azabicyclo[3.2.1]oct-3-yl}acetamide]: the half-inhibitory concentration (IC50) was found to be 0.97 nM in test [1] and 60 nM in test [2]. The inhibition at 30 mg/kg in test [3] came out at 84.8%.
In the case of `NC(=O)N1C[C@@H]2C[C@H]1CN2CCc1ccc(Oc2nc3ncccc3s2)cc1` [Example 45, (1S,4S)-5-{2-[4-([1,3]Thiazolo[4,5-b]pyridin-2-yloxy)phenyl]ethyl}-2,5-diazabicyclo[2.2.1]heptane-2-carboxamide], the IC50 in test [1] (setting [4]) worked out at 3.9 nM; in test [2] (setting [5]) it was 170 nM. Also, the inhibition at 30 mg/kg in test [3] turned out to be 86.8%.
For `CC(=O)N1C[C@H]2CC[C@@H](C1)N2CCc1ccc(Oc2nc3ncccc3s2)cc1` [Example 55, meso-2-(4-{2-[3-Acetyl-3,8-diazabicyclo[3.2.1]oct-8-yl]ethyl}phenoxy)[1,3]thiazolo[4,5-b]pyridine], the IC50 is 4.8 nM in test [1] (setting [4]) and 55 nM in test [2] (setting [5]). Further, in test [3], the inhibition at 30 mg/kg turned out to be 83.7%.
On to `CC(=O)N1C[C@@H]2C[C@H]1CN2CCc1ccc(Oc2nc3ncccc3s2)cc1` [Example 75, 2-(4-{2-[(1S,4S)-5-Acetyl-2,5-diazabicyclo[2.2.1]hept-2-yl]ethyl}phenoxy)[1,3]thiazolo[4,5-b]pyridine], for which the 50% inhibitory concentration (IC50) in test [1] (setting [4]) came to 12 nM; in test [2] (setting [5]) it was 44 nM. The inhibition at 30 mg/kg in test [3] came to 89.5%.
As to `NC(=O)N1C[C@H]2C[C@@H]1CN2Cc1ccc(Oc2nc3ncccc3s2)cc1` [Example 266, (1R,4R)-5-[4-([1,3]Thiazolo[4,5-b]pyridin-2-yloxy)benzyl]-2,5-diazabicyclo[2.2.1]heptane-2-carboxamide], the IC50 was found to be 2 nM in test [1] (setting [4]) and 140 nM in test [2] (setting [5]). In addition, in test [3], the inhibition at 30 mg/kg came out at 78.6%.
`O=C1CCCN1C1CCN(CCOc2ccc(Oc3nc4ncccc4s3)cc2)CC1` [Example 32, 1-(1-{2-[4-([1,3]Thiazolo[4,5-b]pyridin-2-yloxy)phenoxy]ethyl}piperidin-4-yl)pyrrolidin-2-one]: the IC50 came to 8.9 nM in test [1] (setting [4]) and 22 nM in test [2] (setting [5]). For the same molecule, the inhibition at 30 mg/kg in test [3] came to 89%.
As to `CC(=O)N1C[C@H]2C[C@@H]1CN2Cc1ccc(Oc2nc3ncccc3s2)cc1` [Example 265, 2-(4-{[(1R,4R)-5-Acetyl-2,5-diazabicyclo[2.2.1]hept-2-yl]methyl}phenoxy)[1,3]thiazolo[4,5-b]pyridine], the values for the IC50 in test [1] (setting [4]) and in test [2] (setting [5]) were 11 nM and 23 nM, respectively. Also, in test [3], the inhibition at 30 mg/kg was 84.4%.

The values above are taken from patent US20110190503A1, “Thiazolopyridin-2-yloxy-phenyl and thiazolopyrazin-2-yloxy-phenyl amines as modulators of leukotriene A4 hydrolase” (Janssen Pharmaceutical NV, priority 2008, published 2011).
